According to BigSolDB 2.1:

CC(O)Cc1nsc(Nc2ccc(Cl)cc2)n1 (stereo not given)
solubility (mole fraction) (in n-hexane, 293.2 K): 3.5e-06
solubility (mole fraction) (in n-hexane, 298.2 K): 5.2e-06
solubility (mole fraction) (in n-hexane, 303.2 K): 6.9e-06
solubility (mole fraction) (in n-hexane, 310.2 K): 1.13e-05
solubility (mole fraction) (in n-hexane, 315.2 K): 1.73e-05
solubility (mole fraction) (in n-octanol, 293.2 K): 0.0187
solubility (mole fraction) (in n-octanol, 298.2 K): 0.0218
solubility (mole fraction) (in n-octanol, 303.2 K): 0.0245
solubility (mole fraction) (in n-octanol, 310.2 K): 0.029
solubility (mole fraction) (in n-octanol, 315.2 K): 0.035

Cc1ccc(Cl)cc1Nc1nc(CC(C)O)ns1 (stereo not given)
solubility (mole fraction) (in n-hexane, 293.2 K): 2.95e-05
solubility (mole fraction) (in n-hexane, 298.2 K): 3.79e-05
solubility (mole fraction) (in n-hexane, 303.2 K): 4.73e-05
solubility (mole fraction) (in n-hexane, 310.2 K): 5.55e-05
solubility (mole fraction) (in n-hexane, 315.2 K): 6.64e-05
solubility (mole fraction) (in n-octanol, 288.2 K): 0.0441
solubility (mole fraction) (in n-octanol, 290.7 K): 0.0465
solubility (mole fraction) (in n-octanol, 293.2 K): 0.0488
solubility (mole fraction) (in n-octanol, 295.7 K): 0.0515
solubility (mole fraction) (in n-octanol, 298.2 K): 0.054

Cc1cccc(Nc2nc(CC(C)O)ns2)c1 (stereo not given)
solubility (mole fraction) (in n-hexane, 293.2 K): 2.49e-05
solubility (mole fraction) (in n-hexane, 298.2 K): 3.4e-05
solubility (mole fraction) (in n-hexane, 303.2 K): 4.59e-05
solubility (mole fraction) (in n-hexane, 310.2 K): 5.6e-05
solubility (mole fraction) (in n-hexane, 315.2 K): 7.05e-05
solubility (mole fraction) (in n-octanol, 293.2 K): 0.0266
solubility (mole fraction) (in n-octanol, 298.2 K): 0.0355
solubility (mole fraction) (in n-octanol, 303.2 K): 0.038
solubility (mole fraction) (in n-octanol, 310.2 K): 0.0501
solubility (mole fraction) (in n-octanol, 315.2 K): 0.0558

CC(O)Cc1nsc(Nc2cccc(Cl)c2)n1 (stereo not given)
solubility (mole fraction) (in n-hexane, 293.2 K): 5.5e-06
solubility (mole fraction) (in n-hexane, 298.2 K): 9e-06
solubility (mole fraction) (in n-hexane, 303.2 K): 1.32e-05
solubility (mole fraction) (in n-hexane, 310.2 K): 2.4e-05
solubility (mole fraction) (in n-hexane, 315.2 K): 3.62e-05
solubility (mole fraction) (in n-octanol, 293.2 K): 0.0546
solubility (mole fraction) (in n-octanol, 298.2 K): 0.0633
solubility (mole fraction) (in n-octanol, 303.2 K): 0.0729
solubility (mole fraction) (in n-octanol, 310.2 K): 0.0885
solubility (mole fraction) (in n-octanol, 315.2 K): 0.101

Cc1ccc(Nc2nc(CC(C)O)ns2)cc1Cl (stereo not given)
solubility (mole fraction) (in n-hexane, 293.2 K): 3.2e-06
solubility (mole fraction) (in n-hexane, 298.2 K): 4.8e-06
solubility (mole fraction) (in n-hexane, 303.2 K): 6.2e-06
solubility (mole fraction) (in n-hexane, 310.2 K): 9.2e-06
solubility (mole fraction) (in n-hexane, 315.2 K): 1.28e-05
solubility (mole fraction) (in n-octanol, 293.2 K): 0.0121
solubility (mole fraction) (in n-octanol, 298.2 K): 0.0134
solubility (mole fraction) (in n-octanol, 303.2 K): 0.0166
solubility (mole fraction) (in n-octanol, 310.2 K): 0.021
solubility (mole fraction) (in n-octanol, 315.2 K): 0.0251

COc1ccc(Nc2nc(CC(C)O)ns2)cc1 (stereo not given)
solubility (mole fraction) (in n-hexane, 293.2 K): 9.2e-06
solubility (mole fraction) (in n-hexane, 298.2 K): 1.51e-05
solubility (mole fraction) (in n-hexane, 303.2 K): 2.02e-05
solubility (mole fraction) (in n-hexane, 310.2 K): 3.51e-05
solubility (mole fraction) (in n-hexane, 315.2 K): 4.8e-05
solubility (mole fraction) (in n-octanol, 293.2 K): 0.0466
solubility (mole fraction) (in n-octanol, 298.2 K): 0.0627
solubility (mole fraction) (in n-octanol, 303.2 K): 0.0694
solubility (mole fraction) (in n-octanol, 310.2 K): 0.101
solubility (mole fraction) (in n-octanol, 315.2 K): 0.121
